Laboratory results: patent US5925571A, “Method of testing immune competency” (Oxi-Gene, Inc., priority 1997, dated 1999)

Experiments:
[1] = tested on: ADPRT (ADP-ribosylation) in HML; assay: HML + neutrophil co-culture exposed to PMA: HML ADP-ribosylation versus HOCl production; assay type: cell-based, human; conditions: 1×10^6 HML with 0 to 4×10^6 neutrophils, PMA 25 ng/ml, 30 min at 37° C.; FIG. 1
Protocol: HOCl measurement.--Mixed cultures of HML+ neutrophils were assayed for the production of HOCl in the extracellular conditioned medium by removal of the cells by centrifugation following the incubation period, and immediately trapping the produced HOCl with taurine (20 mM). Taurine chloramine was then quantified spectrophotometrically by using the conversion of I^- to I2 (E=2.29×10^4 M^-1 cm^-1). Details of this procedure have been described by Weiss et al (J. Clin. Invest. 70:598-607, 1982).
(§1) ADPRT assay.--The procedure was adapted from the permeabilized cell technique of Berger (Methods Cell Biol. 20:325-340, 1988) with modifications as previously described (Pero et al, Carcinogenesis 10:1657-64, 1989). Duplicate samples of 1×10^6 HML in the presence of 0 to 4×10^6 neutrophils were cultured in 1 ml of KRPG buffer for 30 min at 37° C. in the presence of PMA (phorbol-12-myristate-13-acetate, 25 ng/ml). After this co-incubation, the HML+ neutrophil mixtures were harvested by centrifugation, permeabilized, and ADPRT activity determined by radiometric procedure as described in detail elsewhere (Pero et al, Carcinogenesis 10:1657-64, 1989). […]
This Example establishes that human phagocytes (i.e. neutrophils) produce physiologic relevant concentrations of endogenous ADPRT inhibitors. […] The respiratory burst induced by PMA exposure of neutrophils was monitored by HOCl production. […]

[2] = tested on: ADPRT (adenosine diphosphate ribosyl transferase) in HML; assay: PMA induced ADPRT activity in HML treated with HOCl or chloramine T (permeabilized cell radiometric assay); assay type: cell-based, human; conditions: doses of 80 μM; 30 min at 37° C., then PMA 25 ng/ml for 30 min; versus zero-dose control; FIG. 2
Protocol: as §1
The effect of various dosage levels of chloramine T and HOCl on PMA induced ADPRT activity in HML was investigated utilizing the procedures described above for such tests, measuring the PMA induced ADPRT activity for HML subjected to the various dosages, and comparing the values obtained with measured control values of PMA induced ADPRT activity in HML from the same source but with zero dosages of chloramine T and HOCl.

Cc1ccc(S(=O)(=O)[N-]Cl)cc1.[Na+] [N-chloramine, chloramine T]
produced concentration sufficient to cause inhibition of HML ADP-ribosylation [1]: about 80 μM | inhibition of HML ADPRT activity [2]: > 80%

OCl [HOCl]
produced concentration sufficient to cause inhibition of HML ADP-ribosylation [1]: about 80 μM | inhibition of HML ADPRT activity [2]: > 80%
